The target in this assay is neuraminidase (NA) (Influenza A virus (A/Hong Kong/1073/99(H9N2)), UniProt Q9ICY2). Briefly: biochemical. The following applies: read-out: % inhibition at 1000 μM.

Results on one compound are retold here after PMC2700090 (Virology Journal, 2009).

Peptide text beside a SMILES is read from it.

With `C[C@@H](O)[C@H](NC(=O)[C@H](CCCCN)NC(=O)[C@H](CO)NC(=O)[C@H](CCCNC(=N)N)NC(=O)[C@H](Cc1ccccc1)NC(=O)[C@H](CC(=O)O)NC(=O)[C@@H](N)CC(N)=O)C(=O)O` [L-P1, NDFRSKT] (H-NDFRSKT-OH), the inhibition at 1000 µM was approximately 35%.

Broadly, the inhibition is the relative decrease from the control value, in per cent.
